Measured values taken from PMC10206040, “Identification of novel anti-amoebic pharmacophores from kinase inhibitor chemotypes” (Frontiers in Microbiology, 2023).
Read-outs that look alike come from different tables or passages of the source.

Key:
[1] = tested on: Balamuthia mandrillaris (CDC:V039; ATCC 50209) trophozoites; assay: CellTiter-Glo 2.0 trophocidal assay, B. mandrillaris; assay type: cell-based
From the text: For sub-culturing, 0.25% Trypsin–EDTA (Gibco) cell detachment reagent was used to detach the cells from the culture flasks.

[2] = tested on: Acanthamoeba castellanii T4 isolate (ATCC 50370) trophozoites; assay: CellTiter-Glo 2.0 trophocidal assay, A. castellanii; assay type: cell-based; conditions: Acanthamoeba castellanii, ATCC50370, 72 h, read-out: Acanthamoeba castellanii EC50 ± SD
From the text: This isolate was purchased from American Type Culture Collection (ATCC). […] For sub-culturing, cells were mechanically harvested to detach the cells from the culture flasks.

[3] = tested on: Naegleria fowleri (ATCC 30215) trophozoites; assay: microbe, parasite or virus in culture
Protocol: Trophozoites were routinely grown axenically at 34°C, 5% CO2, in Nelson’s complete medium (NCM) in non-vented 75 cm^2 tissue culture flasks (Olympus), until the cells were 80–90% confluent. For sub-culturing, cells were placed on ice to detach the cells from the culture flasks. […] Complete NCM media is prepared by the addition of 10% fetal bovine serum (FBS) and 100 U/mL penicillin, and 100 μg/mL streptomycin antibiotics.
Trophozoites were routinely cultured as described above and only logarithmic trophozoites were used.
All assays were incubated at each of the parasites’ representative growth temperatures, described above, for 72 h. At the 72-h time point, 25 μL of CellTiter-Glo 2.0 reagent was added to all wells of the 96-well plates by hand. The plates were protected from light and contents were mixed using an orbital shaker at 300 rpm at room temperature for 2 min to induce cell lysis. After shaking, the plates were equilibrated at room temperature for 10 min to stabilize the luminescent signal. The ATP luminescent signal (relative light units; RLUs) were measured […] with a SpectraMax I3X plate reader (Molecular Devices, Sunnyvale, CA, United States). […] Values reported are from a minimum of three biological replicates with standard deviation.

[4] = Balamuthia mandrillaris, ATCC50209, 72 h, logarithmic trophozoites, 72 h, n = 3, read-out: Balamuthia mandrillaris EC50 ± SD
[5] = logarithmic trophozoites, 72 h, n = 3
[6] = Naegleria fowleri, ATCC30215, 72 h, read-out: Naegleria fowleri EC50 ± SD, logarithmic trophozoites, 72 h, n = 3 (converted)
[7] = Balamuthia mandrillaris, ATCC50209, 72 h, read-out: Balamuthia mandrillaris EC50 ± SD, logarithmic trophozoites, 72 h, n = 3 (converted)
[8] = Naegleria fowleri, 72 h, read-out: Naegleria fowleri EC50 ± SD, logarithmic trophozoites, 72 h, n = 3 (converted)
[9] = Balamuthia mandrillaris, ATCC50209, 72 h, read-out: Balamuthia mandrillaris EC50 ± SD

SMILES	EC50 [1, 4] [µM]	EC50 [3, 6] [µM]	EC50 [1, 7] [µM]	EC50 [3, 8] [µM]	other results
CC[C@H]1OC(=O)[C@H](C)[C@@H](O[C@H]2C[C@@](C)(OC)[C@@H](O)[C@H](C)O2)[C@H](C)[C@@H](O[C@@H]2O[C@H](C)C[C@H](N(C)C)[C@H]2O)[C@](C)(O)C[C@@H](C)CN(C)[C@H](C)[C@@H](O)[C@]1(C)O [Azithromycin, reference compound]	> 20	0.02 ± 0.01			EC50 [2, 5]: 0.26 ± 0.14 µM
[H]/N=C(\N/C(=N/[H])NCCCCCCNC(=N)NC(=N)Nc1ccc(Cl)cc1)Nc1ccc(Cl)cc1 [Chlorhexidine, reference compound]	1.6 ± 0.17	5.8 ± 0.22			EC50 [2, 5]: 11 ± 3.5 µM
Nc1cc(-c2cc3c4c(n[nH]c4c2)Nc2ccccc2O3)ncn1 [Compound 1b]	1.8 ± 0.46				EC50 [2, 5]: 12 ± 8.2 µM
Brc1ccc2nc(-c3ccccn3)c(Nc3ccc4c(c3)OCO4)n2c1 [Compound 3e]		> 20			EC50 [2, 5]: > 20 µM
Cn1cc(-c2cnc3[nH]cc(-c4cccnc4)c3c2)cn1 [Compound 4d]		≤ 14			EC50 ([3]; read-out: Naegleria fowleri EC50 ± SD, logarithmic trophozoites, 72 h, n = 3): 8.4 ± 0.71 µM
N#Cc1cccc(-c2c[nH]c3ncc(-c4ccncc4)cc23)c1 [Compound 4f]		> 20			
Cn1cc(-c2ccnc3[nH]c(-c4ccc(C5CCCN5)cc4)cc23)cn1 (stereo not drawn) [Compound 5b]			7.25 ± 0.7		
Cn1cc(-c2ccnc3[nH]c(-c4ccc(C(N)=O)cc4)cc23)cn1 [Compound 5e]			1.8 ± 0.24		
FC(F)(F)CNc1nc(Nc2ccsc2)nc2[nH]cnc12 [Compound 6a]		11 ± 0.6			
c1nc2c(N3CCC3)nc(Nc3ccsc3)nc2[nH]1 [Compound 6b]		14 ± 5.7			
Cn1cc(Nc2nc(NCC(F)(F)F)c3ncn(C)c3n2)cn1 [Compound 6c]		> 20			
c1nc2c(NCCN3CCCC3)nc(Nc3ccsc3)nc2[nH]1 [Compound 6d]		> 20			
CN1CCN(c2ncc(-c3ccc4c(Nc5ccc(OCc6cccc(F)c6)c(Cl)c5)ccnc4c3)cn2)CC1 [Compound 7a]		16 ± 4.1			lipophilic ligand efficiency (LLE) ([3]; N. fowleri, LLE calculated as pEC50-LogD7.4): 1.40
CN1CC2(CCN(c3ncc(-c4ccc5c(Nc6cnccn6)ccnc5c4)cn3)C2)C1 [Compound 7b]	1.4 ± 0.17				
CC(=O)c1ccc2c(c1)c1cc(C(C)=O)ccc1n2CCNC1CCCCC1 [Compound 8a]			6.8 ± 0.1		
CC(=O)c1cc2c3cc(C(C)=O)c(O)cc3n(CCNC(C)C)c2cc1O [Compound 8b]	11 ± 0.35	8.8 ± 0.71			
CC(=O)c1ccc2c(c1)c1cc(C(C)=O)ccc1n2CCN1CCCCC1 [Compound 8d]			12 ± 0.26	4.3 ± 0.22	
CC(=O)c1cc2c3cc(C(C)=O)c(O)cc3n(CCCN(C)C)c2cc1O [Compound 8e]		17 ± 0.65			
CC(=O)c1ccc2c(c1)c1cc(C(C)=O)ccc1n2CCCN(C)C [Compound 8f]	19 ± 1.1	17 ± 0.2			
CC(=O)c1ccc2c(c1)c1cc(C(C)=O)ccc1n2CCNC1CCCCCC1 [Compound 8h]			7.3 ± 0.38		
CC(=O)c1ccc2c(c1)c1cc(C(C)=O)ccc1n2CCN1CC(C)C1 [Compound 8i]			7.3 ± 0.28	18 ± 0.45	
CC(=O)c1ccc2c(c1)c1cc(C(C)=O)ccc1n2CCN1CCCOCC1 [Compound 8j]			3.3 ± 0.24	10 ± 1.4	
CC(=O)c1ccc2c(c1)c1cc(C(C)=O)ccc1n2CCNC1CCCC1 [Compound 8k]			7.4 ± 0.36		

SMILES	EC50 [1, 4] [µM]	EC50 [3, 6] [µM]	EC50 [1, 7] [µM]	EC50 [3, 8] [µM]	other results
CC(=O)c1ccc2c(c1)c1cc(C(C)=O)ccc1n2CCN1CCOC[C@H]1C [Compound 8l]			12		EC50 ([1]; read-out: Balamuthia mandrillaris EC50 ± SD, logarithmic trophozoites, 72 h, n = 3): 13 ± 0.35 µM
Cc1n[nH]c(Nc2cccc3c2CCO3)c1C [Compound S6, N-(2,3-Dihydrobenzofuran-4-yl)-3,4-dimethyl-1H-pyrazol-5-amine]			> 20		EC50 [2]: > 20 µM
Cc1n[nH]c(Nc2cccc3c2CN(C)C3=O)c1C [Compound S8, 4-((3,4-Dimethyl-1H-pyrazol-5-yl)amino)-2-methylisoindolin-1-one]			> 20		EC50 [2]: > 20 µM
c1cnc(Nc2ccnc3cc(C4CCCNC4)ccc23)cn1 (stereo not drawn) [Compound S18, 7-(Piperidin-3-yl)-N-(pyrazin-2-yl)quinolin-4-amine]	> 20	> 20			EC50 [2, 5]: > 20 µM
c1nc2c(N3CCOCC3)nc(Nc3ccsc3)nc2[nH]1 [Compound S25]	> 20			> 20	EC50 [2, 5]: > 20 µM
CC(C)(C)c1ccc(Nc2nccc(-c3c(-c4ccc(C(F)(F)F)cc4)nn4ncccc34)n2)cc1 [Compound S26]				> 20	EC50 [1, 9]: > 20 µM; EC50 [2]: > 20 µM
CC(C)(O)c1nn2ncccc2c1-c1ccnc(Nc2ccc(C(N)=O)cc2)n1 [Compound S27]				> 20	EC50 [1, 9]: > 20 µM; EC50 [2]: > 20 µM
c1cnn2ncc(-c3ccncc3)c2c1 [Compound S28]				> 20	EC50 [1, 9]: > 20 µM; EC50 [2]: > 20 µM
N#Cc1cccc(Nc2nccc(-c3c(CO)nn4nc(N5CCOCC5)ccc34)n2)c1 [Compound S29]				> 20	EC50 [1, 9]: > 20 µM; EC50 [2]: > 20 µM
CN1CCCN(c2ncc(-c3ccc4c(Nc5cnccn5)ccnc4c3)cn2)CC1 [Compound S33]	> 20			> 20	EC50 [2, 5]: > 20 µM
CN1C[C@@H]2C[C@H]1CN2c1ncc(-c2ccc3c(Nc4cnccn4)ccnc3c2)cn1 [Compound S34]	> 20			> 20	EC50 [2, 5]: > 20 µM
CN1CCC2(CC1)CCN(c1ncc(-c3ccc4c(Nc5cnccn5)ccnc4c3)cn1)CC2 [Compound S35]	> 20			> 20	EC50 [2, 5]: > 20 µM
CN1C[C@H]2C[C@@H]1CN2c1ncc(-c2ccc3c(Nc4cnccn4)ccnc3c2)cn1 [Compound S36]	> 20			> 20	EC50 [2, 5]: > 20 µM
CC(=O)c1ccc2c(c1)c1cc(C(C)=O)ccc1n2-c1ccc(N(C)C)cc1 [Compound S37]	> 20			> 20	EC50 [2, 5]: > 20 µM
CC(=O)c1ccc2c(c1)c1cc(C(C)=O)ccc1n2CCN1CCNCC1 [Compound S38]			> 20	> 20	EC50 [2]: > 20 µM
CC(=O)c1ccc2c(c1)c1cc(C(C)=O)ccc1n2CCN1CC(F)C1 [Compound S39]			> 20		EC50 [2]: > 20 µM
CC(=O)c1ccc2c(c1)c1cc(C(C)=O)ccc1n2CCOC(C)C [Compound S40]			> 20		EC50 [2]: > 20 µM
CC(=O)c1ccc2c(c1)c1cc(C(C)=O)ccc1n2CCN1CC(N(C)C)C1 [Compound S41]			> 20		EC50 [2]: > 20 µM
CC(=O)c1ccc2c(c1)c1cc(C(C)=O)ccc1n2CCNCCN(C)C [Compound S42]			> 20		EC50 [2]: > 20 µM
CC(=O)c1ccc2c(c1)c1cc(C(C)=O)ccc1n2CCn1ccnc1 [Compound S43]			> 20	> 20	EC50 [2]: > 20 µM
N=C(N)c1ccc(OCCCCCOc2ccc(C(=N)N)cc2)cc1 [Pentamidine, reference compound]	18.4 ± 1.47	> 50			EC50 [2, 5]: 4.2 ± 0.08 µM
CCC(C)(C)C(=O)O[C@H]1C[C@@H](C)C=C2C=C[C@H](C)[C@H](CC[C@@H]3C[C@@H](O)CC(=O)O3)[C@H]21 [Simvastatin, reference compound]	6.9 ± 0.04				
